Data on one compound can be found in patent US20100120879A1, “INSECTICIDES AS SAFENER FOR FUNGICIDES WITH PHYTOTOXIC ACTION” (priority 2007, published 2010).

The subject of data set [1] is Phakopsora pachyrhizi. Nature of the data set: Fungicidal activity against soybean rust after seed treatment. It counts as in vivo. The note with it: triticonazole 50 g, fipronil 50 g, gibberellic acid 1 g a.s. per 100 kg seeds.
Data set [2] deals with wheat. The note with it: wheat treated with the azole fungicide; F. Montfort et al., Pesticide Science 46(4), 1996; cited from earlier work.
Data set [3] relates to soybeans, variety "Conquista". Nature of the data set: Vitality of the plants 14 days after sowing (visual score). Conditions: visual scale 0 to 10, untreated = 5, each point = 20% improvement or deterioration, triticonazole 50 g, fipronil 50 g, gibberellic acid 1 g a.s. per 100 kg seeds.

In the case of `CC1(C)CCC(=Cc2ccc(Cl)cc2)C1(O)Cn1cncn1` (centres unmarked) [Triticonazole, triticonazole], the “Infection (percentage of diseased leaf area)” value came to 9% in data set [1] (leaves in the middle part of the plant, 35 days after sowing, untreated 10.5); 0% in data set [1] (lower part of the plant, 21 days after sowing, untreated 8.5); 47% in data set [1] (lower part of the plant, 35 days after sowing, untreated 70). Also, in data set [2], the “Longitudinal growth of treated wheat” value is given as “greatly reduced longitudinal growth”. This compound displayed a Vitality in data set [3] of 2.
